Measured values from PubChem BioAssay AID248 (DTP/NCI, 2004).
Where “and” joins values, the source holds several entries; their conditions need not be identical. Equal values may be shown once. Inconclusive results and toxic doses are left out. Cut-off read from the data, not from the text of the source: active = T/C of 150% or more; inactive = T/C below 125%.

Tested on: L1210 leukemia ip in BDF1 mice, survival T/C
Assay: NCI In Vivo Anticancer Drug Screen. Data for tumor model L1210 Leukemia (intraperitoneal) in B6D2F1 (BDF1) mice
Conditions: endpoint: mean survival time, higher = longer survival
Outline: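 Antitumor effect is assessed in tumor-bearing animals. Survival in the compound arm is compared with a vehicle-dosed control arm and expressed as their quotient.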

[1] = dose: 100.0 mg/kg/injection, schedule: Q04DX003 (ip), vehicle: saline with Tween-80
[2] = dose: 200.0 mg/kg/injection, schedule: Q04DX003 (ip), vehicle: saline with Tween-80
[3] = dose: 400.0 mg/kg/injection, schedule: Q04DX003 (ip), vehicle: saline with Tween-80
[4] = dose: 100.0 mg/kg/injection, schedule: Q01DX009 (ip), vehicle: saline with Tween-80
[5] = dose: 200.0 mg/kg/injection, schedule: Q01DX009 (ip), vehicle: saline with Tween-80
[6] = dose: 400.0 mg/kg/injection, schedule: Q01DX009 (ip), vehicle: saline with Tween-80
[7] = dose: 100.0 mg/kg/injection, schedule: Q01DX009 (ip), vehicle: Klucel (hydroxypropylcellulose) (HPC)
[8] = dose: 200.0 mg/kg/injection, schedule: Q01DX009 (ip), vehicle: Klucel (hydroxypropylcellulose) (HPC)
[9] = dose: 400.0 mg/kg/injection, schedule: Q01DX009 (ip), vehicle: Klucel (hydroxypropylcellulose) (HPC)

Measured: T/C

Ic1ccccc1C[N+]12CN3CN(CN(C3)C1)C2
inactive: dose: 15.0 mg/kg/injection, schedule: Q01DX015 (ip), vehicle: carboxymethylcellulose (CMC) 101 % of control | dose: 30.0 mg/kg/injection, schedule: Q01DX015 (ip), vehicle: carboxymethylcellulose (CMC) 92 % of control | dose: 60.0 mg/kg/injection, schedule: Q01DX015 (ip), vehicle: carboxymethylcellulose (CMC) 92 % of control | dose: 100.0 mg/kg/injection, schedule: Q01DX001 (ip), vehicle: acetone 101 % of control | dose: 100.0 mg/kg/injection, schedule: Q01DX009 (ip), vehicle: acetone 96 % of control | dose: 100.0 mg/kg/injection, schedule: Q04DX003 (ip), vehicle: acetone 100 % of control | dose: 120.0 mg/kg/injection, schedule: Q01DX015 (ip), vehicle: carboxymethylcellulose (CMC) 103 % of control | dose: 200.0 mg/kg/injection, schedule: Q01DX001 (ip), vehicle: acetone 101 % of control | dose: 200.0 mg/kg/injection, schedule: Q01DX009 (ip), vehicle: acetone 94 % of control | dose: 200.0 mg/kg/injection, schedule: Q04DX003 (ip), vehicle: acetone 100 % of control | dose: 400.0 mg/kg/injection, schedule: Q01DX001 (ip), vehicle: acetone 94 % of control | dose: 400.0 mg/kg/injection, schedule: Q04DX003 (ip), vehicle: acetone 93 % of control

CCCCNc1ccc(S(=O)(=O)c2ccc(NCCCC)c([N+](=O)[O-])c2)cc1[N+](=O)[O-]
inactive: dose: 1.56 mg/kg/injection, schedule: Q01DX009 (ip), vehicle: DMSO 89 % of control | dose: 3.12 mg/kg/injection, schedule: Q01DX009 (ip), vehicle: DMSO 101 % of control | dose: 6.25 mg/kg/injection, schedule: Q01DX009 (ip), vehicle: DMSO 101 % of control | dose: 25.0 mg/kg/injection, schedule: Q01DX009 (ip), vehicle: DMSO 102 % of control | dose: 100.0 mg/kg/injection, schedule: Q01DX005 (ip), vehicle: DMSO 105 % of control | dose: 100.0 mg/kg/injection, schedule: Q01DX009 (ip), vehicle: DMSO 100 % of control | dose: 100.0 mg/kg/injection, schedule: Q04DX002 (ip), vehicle: DMSO 103 % of control | dose: 200.0 mg/kg/injection, schedule: Q01DX005 (ip), vehicle: DMSO 90 % of control | dose: 200.0 mg/kg/injection, schedule: Q04DX002 (ip), vehicle: DMSO 111 % of control | dose: 400.0 mg/kg/injection, schedule: Q01DX005 (ip), vehicle: DMSO 93 % of control | dose: 400.0 mg/kg/injection, schedule: Q04DX002 (ip), vehicle: DMSO 103 % of control

Nc1cc(=O)[nH]c(C(F)(F)F)n1
inactive: dose: 29.0 mg/kg/injection, schedule: Q01DX Z (ip), vehicle: saline 119 % of control | dose: 45.0 mg/kg/injection, schedule: Q01DX Z (ip), vehicle: saline 98 % of control | dose: 67.0 mg/kg/injection, schedule: Q01DX Z (ip), vehicle: saline 106 % of control | dose: 100.0 mg/kg/injection, schedule: Q01DX Z (ip), vehicle: saline 104 % of control

CC(=O)/C(C)=N/Nc1ccccc1
inactive: [1] 101 % of control | [2] 106 % of control | [3] 106 % of control

Cc1cc(C)c(N(CC(=O)O)S(=O)(=O)c2ccccc2)c(C)c1N(CC(=O)O)S(=O)(=O)c1ccccc1
inactive: [4] 101 % of control | [5] 98 % of control | [6] 97 % of control

COC(=O)C(N)Cc1ccc(OC(c2ccccc2)(c2ccccc2)c2ccccc2)cc1 (stereo unspecified)
inactive: dose: 50.0 mg/kg/injection, schedule: Q01DX009 (ip), vehicle: saline 101 % of control | dose: 100.0 mg/kg/injection, schedule: Q01DX009 (ip), vehicle: saline 103 % of control | dose: 200.0 mg/kg/injection, schedule: Q01DX009 (ip), vehicle: saline 100 % of control | dose: 400.0 mg/kg/injection, schedule: Q01DX009 (ip), vehicle: saline 100 % of control

CC(C)CC([NH-])C(=O)O.CC(C)CC([NH-])C(=O)O.CC(C)CC([NH-])C(=O)O.[Co+3] (stereo unspecified)
inactive: dose: 12.5 mg/kg/injection, schedule: Q01DX009 (ip), vehicle: water 106 % of control | dose: 25.0 mg/kg/injection, schedule: Q01DX009 (ip), vehicle: water 95 % of control | dose: 50.0 mg/kg/injection, schedule: Q01DX009 (ip), vehicle: water 98 % of control and 104 % of control | dose: 100.0 mg/kg/injection, schedule: Q01DX009 (ip), vehicle: water 117 % of control | dose: 100.0 mg/kg/injection, schedule: Q04DX003 (ip), vehicle: water 107 % of control and 98 % of control | dose: 200.0 mg/kg/injection, schedule: Q01DX009 (ip), vehicle: water 111 % of control | dose: 200.0 mg/kg/injection, schedule: Q04DX003 (ip), vehicle: water 110 % of control and 112 % of control | dose: 400.0 mg/kg/injection, schedule: Q04DX003 (ip), vehicle: water 102 % of control

CCCCCCCCCCCCCCCCOc1ccc(S(=O)(=O)N(Cc2ccccc2)Cc2ccccc2)cc1[N+](=O)[O-]
inactive: [1] 86 % of control | [2] 95 % of control | [3] 90 % of control

c1ccc(N=N/C(=N/Nc2ccccc2)c2ccccc2)cc1
inactive: dose: 50.0 mg/kg/injection, schedule: Q01DX009 (ip), vehicle: saline with Tween-80 90 % of control | [4] 96 % of control

c1ccc2c(Cc3c4ccccc4cc4ccccc34)c3ccccc3cc2c1
inactive: dose: 25.0 mg/kg/injection, schedule: Q04DX002 (ip), vehicle: Klucel (hydroxypropylcellulose) (HPC) 94 % of control | dose: 50.0 mg/kg/injection, schedule: Q04DX002 (ip), vehicle: Klucel (hydroxypropylcellulose) (HPC) 97 % of control | dose: 100.0 mg/kg/injection, schedule: Q04DX002 (ip), vehicle: Klucel (hydroxypropylcellulose) (HPC) 90 % of control

Cc1c2oc3c(C)ccc(C(=O)NCCN4CCN(c5ccccc5)CC4)c3nc-2c(C(=O)NCCN2CCN(c3ccccc3)CC2)c(N)c1=O
inactive: dose: 100.0 mg/kg/injection, schedule: Q04DX002 (ip), vehicle: saline with Tween-80 92 % of control | dose: 200.0 mg/kg/injection, schedule: Q04DX002 (ip), vehicle: saline with Tween-80 95 % of control | dose: 400.0 mg/kg/injection, schedule: Q04DX002 (ip), vehicle: saline with Tween-80 95 % of control

CC(C)(C)C1=CC(=O)C(N2C3C4CCC(C4)C32)=C(N2C3C4CCC(C4)C32)C1=O (stereo unspecified)
inactive: dose: 100.0 mg/kg/injection, schedule: Q01DX001 (ip), vehicle: Klucel (hydroxypropylcellulose) (HPC) 96 % of control | dose: 200.0 mg/kg/injection, schedule: Q01DX001 (ip), vehicle: Klucel (hydroxypropylcellulose) (HPC) 94 % of control | dose: 400.0 mg/kg/injection, schedule: Q01DX001 (ip), vehicle: Klucel (hydroxypropylcellulose) (HPC) 87 % of control

CCN(CC)CCOCCN(CC)CC
inactive: dose: 75.0 mg/kg/injection, schedule: Q01DX001 (ip), vehicle: saline 98 % of control | dose: 150.0 mg/kg/injection, schedule: Q01DX001 (ip), vehicle: saline 102 % of control

CCc1ccccc1NC(=O)NCc1ccc(C)c(C)c1
inactive: dose: 25.0 mg/kg/injection, schedule: Q01DX009 (ip), vehicle: Klucel (hydroxypropylcellulose) (HPC) 98 % of control | dose: 50.0 mg/kg/injection, schedule: Q01DX009 (ip), vehicle: Klucel (hydroxypropylcellulose) (HPC) 93 % of control | [7] 93 % of control | [8] 94 % of control | [9] 98 % of control

O=C(Nc1ccc2ccccc2c1)Nc1ccccc1F
inactive: [7] 93 % of control | [8] 104 % of control | [9] 93 % of control

COc1ccc(Cl)cc1
inactive: [4] 92 % of control | [5] 90 % of control

Nc1c(Cl)c(Cl)cc(Cl)c1Cl
inactive: [4] 102 % of control | [5] 100 % of control | [6] 95 % of control

Cc1c2ccccc2c(CSCC(N)C(=O)O)c2ccc3ccccc3c12 (stereo unspecified)
inactive: [4] 87 % of control | [6] 87 % of control
